According to patent US20060069132A1, “Azolecarboxamide herbicides” (priority 2004, published 2006):

Legend:
barnyardgrass [1] = assay: Test B pre-/postemergence herbicide test; format: in vivo, Echinochloa crus-galli; settings: for Plant response rating, Barnyardgrass: preemergence; for Barnyardgrass plant response rating: postemergence, visual rating, scale 0 (no effect) to 100 (complete control)
Outline: (§1)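 Greenhouse pot assay with simultaneous preemergence (treated seed) and postemergence (2–18 cm seedlings) applications of surfactant-containing, non-phytotoxic solvent formulations. Response scored visually 13–15 days later on a 0–100 scale, 100 meaning complete control.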

Surinam grass = assay: Test B pre-/postemergence herbicide test; format: in vivo, Urochloa decumbens; settings: for Plant response rating, Surinam Grass: preemergence; for Surinam Grass plant response rating: postemergence, visual rating, scale 0 (no effect) to 100 (complete control)
Outline: (§2)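 Pre: seeds sown, then sprayed. Post: 1–4-leaf plants (2–18 cm) sprayed at the same time. Paddy: flooded, treated at 2-leaf stage. Formulation: non-phytotoxic solvent with surfactant. Greenhouse 13–15 days; visual 0–100 score relative to controls.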

cocklebur = assay: Test B pre-/postemergence herbicide test; format: in vivo, Xanthium strumarium; settings: for Plant response rating, Cocklebur: preemergence; for Cocklebur plant response rating: postemergence, visual rating, scale 0 (no effect) to 100 (complete control)
Outline: as §1

corn = assay: Test B pre-/postemergence herbicide test; format: in vivo, Zea mays; settings: for Plant response rating, Corn: preemergence; for Corn plant response rating: postemergence, visual rating, scale 0 (no effect) to 100 (complete control)
Outline: as §2

large crabgrass = assay: Test B pre-/postemergence herbicide test; format: in vivo, Digitaria sanguinalis; settings: for Plant response rating, Crabgrass, Large: preemergence; for Crabgrass, Large plant response rating: postemergence, visual rating, scale 0 (no effect) to 100 (complete control)
Outline: as §2

giant foxtail = assay: Test B pre-/postemergence herbicide test; format: in vivo, Setaria faberi; settings: for Plant response rating, Foxtail, Giant: preemergence; for Foxtail, Giant plant response rating: postemergence, visual rating, scale 0 (no effect) to 100 (complete control)
Outline: as §2

lambsquarters = assay: Test B pre-/postemergence herbicide test; format: in vivo, Chenopodium album; settings: for Plant response rating, Lambsquarters: preemergence; for Lambsquarters plant response rating: postemergence, visual rating, scale 0 (no effect) to 100 (complete control)
Outline: as §2

morningglory = assay: Test B pre-/postemergence herbicide test; format: in vivo, Ipomoea coccinea; settings: for Plant response rating, Morningglory: preemergence; for Morningglory plant response rating: postemergence, visual rating, scale 0 (no effect) to 100 (complete control)
Outline: as §1

pigweed = assay: Test B pre-/postemergence herbicide test; format: in vivo, Amaranthus retroflexus; settings: for Plant response rating, Pigweed: preemergence; for Pigweed plant response rating: postemergence, visual rating, scale 0 (no effect) to 100 (complete control)
Outline: as §2

velvetleaf = assay: Test B pre-/postemergence herbicide test; format: in vivo, Abutilon theophrasti; settings: for Plant response rating, Velvetleaf: preemergence; for Velvetleaf plant response rating: postemergence, visual rating, scale 0 (no effect) to 100 (complete control)
Outline: as §2

wheat = assay: Test B postemergence herbicide test; format: in vivo, Triticum aestivum; parameters: key to Wheat plant response rating: 0 = no effect, 100 = complete control; settings: postemergence, visual rating, scale 0 (no effect) to 100 (complete control)
Outline: (§3)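 Postemergence plants were sprayed with formulated test chemicals at 2 to 18 cm height (1- to 4-leaf stage); paddy species were grown to the 2-leaf stage. After 13 to 15 days in a greenhouse, injury was rated visually against untreated controls on a 0–100 scale (0 = no effect, 100 = complete control).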

wild oat = assay: Test B postemergence herbicide test; format: in vivo, Avena fatua; settings: postemergence, visual rating, scale 0 (no effect) to 100 (complete control)
Outline: as §3

rice = assay: Test B flooded paddy test; format: in vivo, Oryza sativa; settings: 1000 g ai/ha, visual rating, scale 0 to 100 (0 no effect, 100 complete control), 13 to 15 days
Outline: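 Plants grow to 1- to 4-leaf stage (2–18 cm) for postemergence spraying, or to 2-leaf stage for the paddy test. Formulated compound is applied. Greenhouse holding lasts 13–15 days. Response is scored visually relative to controls, 0 no effect to 100 complete control; a dash means no result.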

[2] = test system: small flower umbrella sedge; assay: Test B flooded paddy test; format: in vivo, Cyperus difformis; settings: 1000 g ai/ha, visual rating, scale 0 to 100 (0 no effect, 100 complete control), 13 to 15 days
Outline: (§4)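 Greenhouse test; postemergence application to plants at 1–4 leaves (2–18 cm); paddy species at 2 leaves; evaluated visually vs controls at 13–15 days; scale 0–100 (100 = complete control).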

barnyardgrass [3] = assay: Test B flooded paddy test; format: in vivo, Echinochloa crus-galli; settings: 1000 g ai/ha, visual rating, scale 0 to 100 (0 no effect, 100 complete control), 13 to 15 days
Outline: as §4

[4] = 500 g ai/ha, visual rating 0-100, 0 no effect, 100 complete control
[5] = 125 g ai/ha, 0 to 100 scale, 0 is no effect, 100 is complete control

C=Cn1nc(C(C)(C)C)cc1C(=O)Nc1cccc(C(C)=O)c1 [Compound 127]
50: Plant response rating, Surinam Grass (Surinam grass; [5]) | Rice plant response rating (rice) | Barnyardgrass plant response rating (barnyardgrass [3])
100: Plant response rating, Crabgrass, Large (large crabgrass; [4]) | Sedge, Umbrella plant response rating [2]
80: Cocklebur plant response rating (cocklebur; 500 g ai/ha) | Lambsquarters plant response rating (lambsquarters; 500 g ai/ha)
10: Barnyardgrass plant response rating (barnyardgrass [1]; 125 g ai/ha) | Surinam Grass plant response rating (Surinam grass; 125 g ai/ha) | Surinam Grass plant response rating (Surinam grass; 500 g ai/ha) | Cocklebur plant response rating (cocklebur; 125 g ai/ha) | Plant response rating, Cocklebur (cocklebur; [5]) | Velvetleaf plant response rating (velvetleaf; 500 g ai/ha) | Plant response rating, Velvetleaf (velvetleaf; [5]) | Wheat plant response rating (wheat; 500 g ai/ha) | Oat, Wild plant response rating (wild oat; 125 g ai/ha) | Oat, Wild plant response rating (wild oat; 500 g ai/ha)
60: Plant response rating, Surinam Grass (Surinam grass; [4]) | Pigweed plant response rating (pigweed; 500 g ai/ha)
20: Barnyardgrass plant response rating (barnyardgrass [1]; 500 g ai/ha) | Plant response rating, Barnyardgrass (barnyardgrass [1]; [5]) | Plant response rating, Cocklebur (cocklebur; [4]) | Crabgrass, Large plant response rating (large crabgrass; 125 g ai/ha) | Foxtail, Giant plant response rating (giant foxtail; 125 g ai/ha) | Plant response rating, Velvetleaf (velvetleaf; [4])
0: Plant response rating, Corn (corn; [4]) | Plant response rating, Corn (corn; [5]) | Plant response rating, Lambsquarters (lambsquarters; [5]) | Plant response rating, Morningglory (morningglory; [5]) | Velvetleaf plant response rating (velvetleaf; 125 g ai/ha) | Wheat plant response rating (wheat; 125 g ai/ha)
90: Plant response rating, Crabgrass, Large (large crabgrass; [5])
40: Plant response rating, Pigweed (pigweed; [5])
70: Plant response rating, Barnyardgrass (barnyardgrass [1]; [4]) | Plant response rating, Foxtail, Giant (giant foxtail; [4]) | Plant response rating, Lambsquarters (lambsquarters; [4]) | Lambsquarters plant response rating (lambsquarters; 125 g ai/ha) | Plant response rating, Pigweed (pigweed; [4])
30: Crabgrass, Large plant response rating (large crabgrass; 500 g ai/ha) | Foxtail, Giant plant response rating (giant foxtail; 500 g ai/ha) | Plant response rating, Foxtail, Giant (giant foxtail; [5]) | Pigweed plant response rating (pigweed; 125 g ai/ha)

CCn1nc(C(C)(C)C)cc1C(=O)Nc1cccc(SC(F)(F)F)c1 [Compound 130]
10: Plant response rating, Barnyardgrass (barnyardgrass [1]; [5]) | Plant response rating, Corn (corn; [5]) | Plant response rating, Morningglory (morningglory; [4]) | Plant response rating, Morningglory (morningglory; [5]) | Plant response rating, Velvetleaf (velvetleaf; [5])
0: Plant response rating, Cocklebur (cocklebur; [4]) | Plant response rating, Cocklebur (cocklebur; [5]) | Plant response rating, Lambsquarters (lambsquarters; [5]) | Rice plant response rating (rice) | Sedge, Umbrella plant response rating [2]
60: Plant response rating, Surinam Grass (Surinam grass; [5]) | Foxtail, Giant plant response rating (giant foxtail; 500 g ai/ha) | Oat, Wild plant response rating (wild oat; 500 g ai/ha)
90: Surinam Grass plant response rating (Surinam grass; 500 g ai/ha) | Crabgrass, Large plant response rating (large crabgrass; 500 g ai/ha) | Plant response rating, Crabgrass, Large (large crabgrass; [5]) | Lambsquarters plant response rating (lambsquarters; 125 g ai/ha) | Plant response rating, Velvetleaf (velvetleaf; [4])
80: Barnyardgrass plant response rating (barnyardgrass [1]; 500 g ai/ha) | Plant response rating, Surinam Grass (Surinam grass; [4])
50: Barnyardgrass plant response rating (barnyardgrass [1]; 125 g ai/ha) | Surinam Grass plant response rating (Surinam grass; 125 g ai/ha)
100: Cocklebur plant response rating (cocklebur; 125 g ai/ha) | Cocklebur plant response rating (cocklebur; 500 g ai/ha) | Plant response rating, Crabgrass, Large (large crabgrass; [4]) | Lambsquarters plant response rating (lambsquarters; 500 g ai/ha) | Morningglory plant response rating (morningglory; 125 g ai/ha) | Morningglory plant response rating (morningglory; 500 g ai/ha) | Plant response rating, Pigweed (pigweed; [4]) | Pigweed plant response rating (pigweed; 125 g ai/ha) | Pigweed plant response rating (pigweed; 500 g ai/ha)
70: Plant response rating, Barnyardgrass (barnyardgrass [1]; [4]) | Crabgrass, Large plant response rating (large crabgrass; 125 g ai/ha) | Plant response rating, Foxtail, Giant (giant foxtail; [4]) | Plant response rating, Lambsquarters (lambsquarters; [4]) | Velvetleaf plant response rating (velvetleaf; 125 g ai/ha) | Velvetleaf plant response rating (velvetleaf; 500 g ai/ha)
40: Corn plant response rating (corn; 500 g ai/ha) | Wheat plant response rating (wheat; 500 g ai/ha) | Oat, Wild plant response rating (wild oat; 125 g ai/ha) | Barnyardgrass plant response rating (barnyardgrass [3])
20: Plant response rating, Corn (corn; [4]) | Corn plant response rating (corn; 125 g ai/ha) | Foxtail, Giant plant response rating (giant foxtail; 125 g ai/ha) | Plant response rating, Foxtail, Giant (giant foxtail; [5]) | Plant response rating, Pigweed (pigweed; [5]) | Wheat plant response rating (wheat; 125 g ai/ha)
